Experimental data: US20150010928A1, “MEANS AND METHODS FOR ASSESSING AN ENDOCRINE DISEASE OR DISORDER” (priority 2012, published 2015)
Marks after values point to notes of the source that are not given here.

System: male rats
Experiment: Plasma metabolite profiling (GC-MS, LC-MS, SPE-LC-MS) in male rats dosed once daily over 28 days (OECD 407)
Format: in vivo, rat
Parameters: key to erythro-Sphingoside (d18:1) / Tricosanoic acid (C23:0) / beta-Sitosterol / Tryptophan: ratio of treated group mean to untreated control group mean
Description: Each dose group in the studies consisted of five rats per sex. Additional groups of each 5 male and female animals served as controls. […] All animals of the animal population were kept under the same constant temperature (20-24±3° C.) and the same constant humidity (30-70%). The animals of the animal population were fed ad libitum. The food to be used was essentially free of chemical or microbial contaminants. Drinking water was also offered ad libitum. Accordingly, the water was free of chemical and microbial contaminants as laid down in the European Drinking Water Directive 98/83/EG. The illumination period was 12 hours light followed by 12 hours darkness (12 hours light, from 6:00 to 18:00, and 12 hours darkness, from 18:00 to 6:00). […] The test substances (compounds) in the Tables 1 to 17 below were dosed and administered as described in the Table 18.
In the morning of day 7, 14, and 28, blood was taken from the retroorbital venous plexus from fasted anaesthetized animals. From each animal, 1 ml of blood was collected with EDTA as anticoagulant. The samples were centrifuged for generation of plasma. All plasma samples were covered with a N2 atmosphere and then stored at −80° C. until analysis.
For mass spectrometry-based metabolite profiling analyses plasma samples were extracted and a polar and a non-polar (lipid) fraction was obtained. For GC-MS analysis, the non-polar fraction was treated with methanol under acidic conditions to yield the fatty acid methyl esters. Both fractions were further derivatised with O-methyl-hydroxyamine hydrochloride and pyridine to convert Oxogroups to O-methyloximes and subsequently with a silylating agent before analysis. In LC-MS analysis, both fractions were reconstituted in appropriate solvent mixtures. HPLC was performed by gradient elution on reversed phase separation columns. Mass spectrometric detection which allows target and high sensitivity MRM (Multiple Reaction Monitoring) profiling in parallel to a full screen analysis was applied as described in WO2003073464.
Steroids and their metabolites were measured by online SPE-LC-MS (Solid phase extraction-LC-MS).
Following comprehensive analytical validation steps, the data for each analyte were normalized against data from pool samples. These samples were run in parallel through the whole process to account for process variability. The significance of treatment group values specific for sex, treatmentduration and metabolite was determined by comparing means of the treated groups to the means of the respective untreated control groups using WELCH-test and quantified with treatment ratios versus control and p-values.
The identification of the most important biomarkers per toxicity pattern was done by a ranking of the analytes in the tables below. Therefore the metabolic changes in reference treatments of a given pattern (shown in the table) were compared with changes of the same metabolite in other unrelated treatments. […] The maximum absolute value of the respective TVALUE was taken to indicate the most important metabolite for the pattern.

Compound: CC(C)C(=O)Nc1ccc([N+](=O)[O-])c(C(F)(F)F)c1 [Flutamide]
- 3-O-Methylsphingosine (d18:1) (m7, high dose, Table 10a): 1.27 *
- Nervonic acid (C24:cis[15]1) (m7, high dose, Table 10a): 1.39 *
- Stearic acid (C18:0) (m7, high dose, Table 10a): 1.15 *
- alpha-Tocopherol (m7, high dose, Table 10a): 1.55 *
- threo-Sphingosine (d18:1) (m7, high dose, Table 10a): 1.39 *
- Thyroxine (T4) (m7, high dose, Table 10b): 0.46 *
- trans-4-Hydroxyproline (m7, high dose, Table 10b): 0.79 *
- 3-Methoxytyrosine (m7, high dose, Table 11a): 1.97 *
- 3-O-Methylsphingosine (d18:1) (m7, high dose, Table 11a): 1.27 *
- Androstenedione (m7, high dose, Table 11a): 19.42 *
- Behenic acid (C22:0) (m7, high dose, Table 11a): 1.89 *
- Dodecanol (m7, high dose, Table 11a): 1.2 *
- Eicosanoic acid (C20:0) (m7, high dose, Table 11a): 2.11 *
- Galactose, lipid fraction (m7, high dose, Table 11a): 1.44 *
- Glycerol phosphate, lipid fraction (m7, high dose, Table 11a): 1.57 *
- Nervonic acid (C24:cis[15]1) (m7, high dose, Table 11a): 1.39 *
- Noradrenaline (Norepinephrine) (m7, high dose, Table 11a): 1.36 *
- Phosphatidylcholine (C18:0, C18:2) (m7, high dose, Table 11a): 1.38 *
- Phytosphingosine (m7, high dose, Table 11a): 2.29 *
- Stearic acid (C18:0) (m7, high dose, Table 11a): 1.15 *
- Testosterone (m7, high dose, Table 11a): 10.33 *
- Tryptophan (m7, high dose, Table 11a): 1.22 *
- dihomo-gamma-Linolenic acid (C20:cis[8,11,14]3) (m7, high dose, Table 11a): 1.55 *
- myo-Inositol-2-phosphate, lipid fraction (m7, high dose, Table 11a): 2.52 *
- threo-Sphingosine (d18:1) (m7, high dose, Table 11a): 1.39 *
- 3-Hydroxybutyrate (m7, high dose, Table 11b): 0.53 *
- 4-Hydroxy-3-methoxyphenylglycol (HMPG) (m7, high dose, Table 11b): 0.67 *
- 18-Hydroxy-11-deoxycorticosterone (m7, high dose, Table 11b): 0.75^
- 21-Hydroxyprogesterone (11-Deoxycorticosterone) (m7, high dose, Table 11b): 0.65^
- Citrate (m7, high dose, Table 11b): 0.74 *
- Coenzyme Q9 (m7, high dose, Table 11b): 0.73 *
- Coenzyme Q10 (m7, high dose, Table 11b): 0.58 *
- Corticosterone (m7, high dose, Table 11b): 0.83^
- Metanephrine (m7, high dose, Table 11b): 0.5 *
- Palmitoleic acid (C16:cis[9]1) (m7, high dose, Table 11b): 0.77 *
- Progesterone (m7, high dose, Table 11b): 0.64^
- trans-4-Hydroxyproline (m7, high dose, Table 11b): 0.79 *
- 3-O-Methylsphingosine (d18:1) (m14, high dose, Table 10a): 0.78
- 5-O-Methylsphingosine (d18:1) (m14, high dose, Table 10a): 0.81
- Cysteine (m14, high dose, Table 10a): 0.96
- Lignoceric acid (C24:0) (m14, high dose, Table 10a): 0.9
- Nervonic acid (C24:cis[15]1) (m14, high dose, Table 10a): 0.93
- Oleic acid (C18:cis[9]1) (m14, high dose, Table 10a): 1.1
- Stearic acid (C18:0) (m14, high dose, Table 10a): 1.01
- alpha-Tocopherol (m14, high dose, Table 10a): 1.24
- erythro-Sphingoside (d18:1) (m14, high dose, Table 10a): 0.79
- threo-Sphingosine (d18:1) (m14, high dose, Table 10a): 0.95
- Oleic acid (C18:cis[9]1) (m14, high dose, Table 10b): 1.1
- Phosphatidylcholine (C16:0, C16:0) (m14, high dose, Table 10b): 0.7 *
- Thyroxine (T4) (m14, high dose, Table 10b): 0.57^
- trans-4-Hydroxyproline (m14, high dose, Table 10b): 0.89 *
- 3-Methoxytyrosine (m14, high dose, Table 11a): 1.47 *
- 3-O-Methylsphingosine (d18:1) (m14, high dose, Table 11a): 0.78
- 5-O-Methylsphingosine (d18:1) (m14, high dose, Table 11a): 0.81
- Androstenedione (m14, high dose, Table 11a): 46.48 *
- Arachidonic acid (C20:cis[5,8,11,14]4) (m14, high dose, Table 11a): 0.99
- Cholesterol (m14, high dose, Table 11a): 1.07
- Cysteine (m14, high dose, Table 11a): 0.96
- Eicosanoic acid (C20:0) (m14, high dose, Table 11a): 1.84 *
- Galactose, lipid fraction (m14, high dose, Table 11a): 1.07
- Glycerol phosphate, lipid fraction (m14, high dose, Table 11a): 1.18 *
- Indole-3-lactic acid (m14, high dose, Table 11a): 1.06
- Lignoceric acid (C24:0) (m14, high dose, Table 11a): 0.9
- Nervonic acid (C24:cis[15]1) (m14, high dose, Table 11a): 0.93
- Noradrenaline (Norepinephrine) (m14, high dose, Table 11a): 1.85 *
- Phosphate, lipid fraction (m14, high dose, Table 11a): 1.08
- Phosphatidylcholine (C18:0, C18:2) (m14, high dose, Table 11a): 1.17
- Phosphatidylcholine (C18:0, C20:3) (m14, high dose, Table 11a): 1.01
- Phosphatidylcholine (C18:0, C22:6) (m14, high dose, Table 11a): 0.96
- Phosphatidylcholine (C18:0,C18:1) (m14, high dose, Table 11a): 1.15
- Stearic acid (C18:0) (m14, high dose, Table 11a): 1.01
- Testosterone (m14, high dose, Table 11a): 16.89 *
- Tricosanoic acid (C23:0) (m14, high dose, Table 11a): 0.9
- Tryptophan (m14, high dose, Table 11a): 1.15
- alpha-Tocopherol (m14, high dose, Table 11a): 1.16
- beta-Sitosterol (m14, high dose, Table 11a): 0.91
- dihomo-gamma-Linolenic acid (C20:cis[8,11,14]3) (m14, high dose, Table 11a): 1.46 *
- erythro-Sphingosine (d18:1) (m14, high dose, Table 11a): 0.79
- threo-Sphingosine (d18:1) (m14, high dose, Table 11a): 0.95
- 3-Hydroxybutyrate (m14, high dose, Table 11b): 0.72 *
- 4-Hydroxy-3-methoxyphenylglycol (HMPG) (m14, high dose, Table 11b): 0.7 *
- 18-Hydroxy-11-deoxycorticosterone (m14, high dose, Table 11b): 0.48 *
- 21-Hydroxyprogesterone (11-Deoxycorticosterone) (m14, high dose, Table 11b): 0.31 *
- Citrate (m14, high dose, Table 11b): 0.88 *
- Coenzyme Q10 (m14, high dose, Table 11b): 0.43 *
- Corticosterone (m14, high dose, Table 11b): 0.38 *
- Metanephrine (m14, high dose, Table 11b): 0.61 *
- Palmitoleic acid (C16:cis[9]1) (m14, high dose, Table 11b): 0.68 *
- Phosphatidylcholine (C16:0, C16:0) (m14, high dose, Table 11b): 0.7 *
- Progesterone (m14, high dose, Table 11b): 0.33 *
- trans-4-Hydroxyproline (m14, high dose, Table 11b): 0.89 *
- 3-O-Methylsphingosine (d18:1) (m28, high dose, Table 10a): 1.52^
- Cysteine (m28, high dose, Table 10a): 1.41 *
- Lignoceric acid (C24:0) (m28, high dose, Table 10a): 1.3 *
- Nervonic acid (C24:cis[15]1) (m28, high dose, Table 10a): 1.46 *
- alpha-Tocopherol (m28, high dose, Table 10a): 1.54 *
- threo-Sphingosine (d18:1) (m28, high dose, Table 10a): 1.38 *
- Phosphatidylcholine (C16:0, C16:0) (m28, high dose, Table 10b): 0.81 *
- Thyroxine (T4) (m28, high dose, Table 10b): 0.72^
- trans-4-Hydroxyproline (m28, high dose, Table 10b): 0.72 *
- 3-Methoxytyrosine (m28, high dose, Table 11a): 1.55 *
- 3-O-Methylsphingosine (d18:1) (m28, high dose, Table 11a): 1.52 *
- Androstenedione (m28, high dose, Table 11a): 18.79 *
- Behenic acid (C22:0) (m28, high dose, Table 11a): 1.34 *
- Cholesterol (m28, high dose, Table 11a): 1.22 *
- Cysteine (m28, high dose, Table 11a): 1.41 *
- Eicosanoic acid (C20:0) (m28, high dose, Table 11a): 1.93 *
- Histidine (m28, high dose, Table 11a): 0.98^
- Lignoceric acid (C24:0) (m28, high dose, Table 11a): 1.3 *
- Nervonic acid (C24:cis[15]1) (m28, high dose, Table 11a): 1.46 *
- Noradrenaline (Norepinephrine) (m28, high dose, Table 11a): 0.93^
- Phosphatidylcholine (C18:0, C20:3) (m28, high dose, Table 11a): 0.94^
- Phosphatidylcholine (C18:0, C22:6) (m28, high dose, Table 11a): 1.34 *
- Testosterone (m28, high dose, Table 11a): 8.45 *
- Threonine (m28, high dose, Table 11a): 1.22 *
- alpha-Tocopherol (m28, high dose, Table 11a): 1.19^
- beta-Sitosterol (m28, high dose, Table 11a): 0.89^
- dihomo-gamma-Linolenic acid (C20:cis[8,11,14]3) (m28, high dose, Table 11a): 2.58 *
- myo-Inositol-2-phosphate, lipid fraction (m28, high dose, Table 11a): 1.44 *
- threo-Sphingosine (d18:1) (m28, high dose, Table 11a): 1.38 *
- 4-Hydroxy-3-methoxyphenylglycol (HMPG) (m28, high dose, Table 11b): 0.8 *
- 18-Hydroxy-11-deoxycorticosterone (m28, high dose, Table 11b): 0.07 *
- 21-Hydroxyprogesterone (11-Deoxycorticosterone) (m28, high dose, Table 11b): 0.26 *
- Citrate (m28, high dose, Table 11b): 0.9
- Coenzyme Q9 (m28, high dose, Table 11b): 0.95^
- Coenzyme Q10 (m28, high dose, Table 11b): 0.4 *
- Corticosterone (m28, high dose, Table 11b): 0.07 *
- Metanephrine (m28, high dose, Table 11b): 0.48 *
- Palmitoleic acid (C16:cis[9]1) (m28, high dose, Table 11b): 0.6 *
- Phosphatidylcholine (C16:0, C16:0) (m28, high dose, Table 11b): 0.81 *
- Progesterone (m28, high dose, Table 11b): 0.25 *
- trans-4-Hydroxyproline (m28, high dose, Table 11b): 0.72 *
- 3-Hydroxybutyrate (rat, in vivo): 1.08^
- Behenic acid (C22:0) (rat, in vivo): 1.12 *
- Cholesterol (rat, in vivo): 1.43 *
- Coenzyme Q9 (rat, in vivo): 1.04^
- Cysteine (rat, in vivo): 1.21^
- Galactose, lipid fraction (rat, in vivo): 1.23 *
- Glycerol phosphate, lipid fraction (rat, in vivo): 1.28 *
- Lignoceric acid (C24:0) (rat, in vivo): 1.43 *
- Phosphatidylcholine (C16:0, C16:0) (rat, in vivo): 1.12^
- Phosphatidylcholine (C18:0, C18:2) (rat, in vivo): 1.13^
- Phosphatidylcholine (C18:0, C20:3) (rat, in vivo): 1.14 *
- Phosphatidylcholine (C18:0, C22:6) (rat, in vivo): 1.01^
- Stearic acid (C18:0) (rat, in vivo): 1.29 *
- Tryptophan (rat, in vivo): 1.08 *
- alpha-Tocopherol (rat, in vivo): 1.43 *
- beta-Sitosterol (rat, in vivo): 1.24 *
- myo-Inositol-2-phosphate, lipid fraction (rat, in vivo): 1.06 *
